Measured values from patent US20240124483A1, “Methods for the Treatment of Fibrotic Disease” (SHY Therapeutics, LLC, priority 2021, published 2024).

Tested on: serum albumin in muscle tissues
Experiment: Albumin analysis of muscle tissue in the D2-mdx mouse model (western blot, densitometry)
Assay type: in vivo
Source text: The experiment described herein was designed to monitor the effects of Compound 9 on two biomarkers related to fibrosis in D2-mdx mice. The first biomarker is Smad2 phosphorylation, and the second is the levels of serum albumin in the different muscle tissues. Fibrosis causes disruption of the fine transparent tubular sheath which envelops the fibers of skeletal muscles, this can result in various molecules from the blood and interstitial fluid leaking into myofibres. A classic example is serum albumin, which can be identified in tissue sections and considered to be hallmark of myofibre permeability.
Experimental Design: Compound 9 was suspended in 0.5% Hydroxypropyl Methylcellulose (HPMC)/0.1% Tween® 80 to a final concentration of 10 mg/mL. The dosing solutions were prepared prior to the start of the test and were stored in the dark and maintained in frozen aliquots. Doses were thawed prior to administration. Male D2-mdx (JAX Stock No: 013141) mice were sourced from The Jackson Laboratory and housed in solid bottom cages with standard chow and water ad libitum. Dosing was initiated when animals were ˜3 weeks old. Animals were dosed daily by intraperitoneal (IP) injection at 100 mg/kg or vehicle for 3 days. […] Mice were sacrificed by CO2 euthanasia approximately 6 hours after their day 3 dosing. Heart, diaphragm, quadriceps, tibialis anterior (TA) samples were collected at termination on day 3 and snap frozen. These samples were shipped on dry ice for analysis, and were stored at −80° C.
Tissue protein extraction: Frozen tissues were placed on ice in prechilled tubes with 30 μL/mg with of ice-cold RIPA buffer+Halt™ Protease & Phosphatase Inhibitor Cocktail. Tissue was homogenized with a manual tissue homogenizer then centrifuged at 14,000 RPM at 4° C. for 15 min. Supernatant was removed and protein concentration determined by BCA assay.
Western blot protocol: Equal amounts of protein (15-50 μg) were separated by SDS-PAGE and transferred to nitrocellulose membranes (Invitrogen by Thermo Fisher Scientific). The membrane was stained with Ponceau S Stain (Boston BioProducts) to verify uniform protein loading. Membranes were blocked with 10% milk and albumin levels were assessed by incubating overnight at 4° C. with albumin antibody (Cell Signaling Technology #4929). Then the membranes were incubated with HRP-conjugated secondary antibody (Jackson Immunoresearch, West Grove, PA). Bands were incubated in Amersham ECL Prime Western Blotting Detection Reagent (GE Healthcare) and visualized using the ChemiDoc MP imaging system (Bio-Rad).
Western blot images for samples collected from heart (FIG. 2), diaphragm (FIG. 3), quadriceps (FIG. 4), and tibialis anterior (TA, FIG. 5) tissues following termination on day 3 were analyzed, providing the results summarized herein below (derived by densitometry).

[1] = D2-mdx mice, 100 mg/kg IP, 3 days
[2] = Ratio of Vehicle and Treated, 100 mg/kg IP, 3 days
[3] = Treated, 100 mg/kg IP daily for 3 days, D2-mdx mice, densitometry

With `COCCNc1nc(-c2nccn2C)nc2sc(-c3cccc(OC)c3Cl)c(-c3ccccc3)c12` [Compound 9, 6-(2-Chloro-3-methoxyphenyl)-N-(2-methoxyethyl)-2-(1-methyl-1H-imidazol-2-yl)-5-phenylthieno[2,3-d]pyrimidin-4-amine] the “serum albumin levels in the heart” value [1] was “No changes were detected”, the “serum albumin levels in the tibialis anterior and quadricep muscles” value [1] was “clear decrease” and the “Albumin, Quadriceps, Average, Ratio” value [2] was 1.25. For the same compound, the “Albumin, Quadriceps, Median, Ratio” value [2] was 1.21, the “Albumin, Tibialis anterior, Average, Ratio” value [2] was 1.18 and the “Albumin, Tibialis anterior, Median, Ratio” value [2] was 1.26. The “Albumin, Quadriceps, Average” value [3] was 32650 ± 4998, the “Albumin, Quadriceps, Median” value [3] was 34329 and the “Albumin, Tibialis anterior, Average” value [3] was 34522 ± 4321. The “Albumin, Tibialis anterior, Median” value [3] was 33494.
